Test results from ChEMBL document CHEMBL5726221, “4,6-substituted-pyrazolo[1,5-a]pyrazines as janus kinase inhibitors” (2019).

Key:
[1] = biological target: T1, Tyrosine-protein kinase JAK3 (Homo sapiens, UniProt P52333); test: JAK3 Inhibition Assay: Compounds of Formula I were screened for their ability to inhibit JAK3 using the general enzyme inhibition assay method, in which the assay mixture contained 1 mM ATP, 10 μM Omnia® Y7 peptide (Catalog # IVGN KNZ3071C, Invitrogen Corporation, Carlsbad, Calif.) and 2 nM JAK3 in a total volume of 25 μL. JAK3 was purchased from Invitrogen Corporation, Carlsbad, Calif. (catalog # IVGN PV4080).
T1 sequence (P52333 whole entry): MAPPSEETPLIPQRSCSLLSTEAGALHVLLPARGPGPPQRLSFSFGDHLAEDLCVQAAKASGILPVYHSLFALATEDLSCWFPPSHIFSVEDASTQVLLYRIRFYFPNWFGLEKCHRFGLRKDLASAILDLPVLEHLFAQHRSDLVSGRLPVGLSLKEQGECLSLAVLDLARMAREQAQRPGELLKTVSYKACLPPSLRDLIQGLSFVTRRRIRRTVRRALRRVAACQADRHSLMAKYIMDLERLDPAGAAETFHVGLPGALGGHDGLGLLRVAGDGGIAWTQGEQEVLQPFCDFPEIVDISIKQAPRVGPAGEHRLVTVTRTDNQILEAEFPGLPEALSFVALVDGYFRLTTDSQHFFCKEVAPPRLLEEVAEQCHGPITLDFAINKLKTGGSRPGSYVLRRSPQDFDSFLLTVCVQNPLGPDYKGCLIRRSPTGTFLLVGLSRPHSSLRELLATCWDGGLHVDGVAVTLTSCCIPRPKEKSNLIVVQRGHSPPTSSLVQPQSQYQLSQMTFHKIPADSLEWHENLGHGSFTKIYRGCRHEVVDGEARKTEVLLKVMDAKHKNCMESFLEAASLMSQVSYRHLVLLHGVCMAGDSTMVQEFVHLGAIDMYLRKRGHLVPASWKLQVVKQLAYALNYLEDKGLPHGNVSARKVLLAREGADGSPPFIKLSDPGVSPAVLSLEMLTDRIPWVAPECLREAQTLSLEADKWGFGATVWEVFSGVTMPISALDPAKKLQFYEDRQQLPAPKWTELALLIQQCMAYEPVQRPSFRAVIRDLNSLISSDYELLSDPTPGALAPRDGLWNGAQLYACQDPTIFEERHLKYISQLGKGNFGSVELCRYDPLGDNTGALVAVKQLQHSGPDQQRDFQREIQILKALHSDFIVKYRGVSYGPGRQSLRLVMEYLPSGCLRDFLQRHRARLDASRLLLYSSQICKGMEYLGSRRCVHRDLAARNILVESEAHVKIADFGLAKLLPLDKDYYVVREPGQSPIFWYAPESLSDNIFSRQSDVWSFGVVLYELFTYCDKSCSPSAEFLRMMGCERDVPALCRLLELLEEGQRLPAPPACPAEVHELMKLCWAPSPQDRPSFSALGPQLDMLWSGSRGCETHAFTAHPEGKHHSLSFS

[2] = biological target: Non-receptor tyrosine-protein kinase TYK2 (Homo sapiens, UniProt P29597); test: Tyk2 Inhibition Assay: Compounds of Formula I were screened for their ability to inhibit Tyk2 using the general enzyme inhibition assay method, in which the assay mixture contained 1 mM ATP, 8 μM Omnia Y12 peptide (Catalog # IVGN KPZ3121C; Invitrogen Corporation, Carlsbad, Calif.) and 1 nM Tyk2 in a total volume of 25 μL. Human Tyk2 kinase domain, comprising amino acids 886 to 1187 with 10 additional histidine residues (histidine tag) on the carboxy terminus, was expressed and purified from bacculovirus in-house at Array BioPharma Inc. (Boulder, Colo.). The histidine tag was cleaved after purification using standard conditions.
Chain of Non-receptor tyrosine-protein kinase TYK2 (P29597 whole entry, the tested form may be a part): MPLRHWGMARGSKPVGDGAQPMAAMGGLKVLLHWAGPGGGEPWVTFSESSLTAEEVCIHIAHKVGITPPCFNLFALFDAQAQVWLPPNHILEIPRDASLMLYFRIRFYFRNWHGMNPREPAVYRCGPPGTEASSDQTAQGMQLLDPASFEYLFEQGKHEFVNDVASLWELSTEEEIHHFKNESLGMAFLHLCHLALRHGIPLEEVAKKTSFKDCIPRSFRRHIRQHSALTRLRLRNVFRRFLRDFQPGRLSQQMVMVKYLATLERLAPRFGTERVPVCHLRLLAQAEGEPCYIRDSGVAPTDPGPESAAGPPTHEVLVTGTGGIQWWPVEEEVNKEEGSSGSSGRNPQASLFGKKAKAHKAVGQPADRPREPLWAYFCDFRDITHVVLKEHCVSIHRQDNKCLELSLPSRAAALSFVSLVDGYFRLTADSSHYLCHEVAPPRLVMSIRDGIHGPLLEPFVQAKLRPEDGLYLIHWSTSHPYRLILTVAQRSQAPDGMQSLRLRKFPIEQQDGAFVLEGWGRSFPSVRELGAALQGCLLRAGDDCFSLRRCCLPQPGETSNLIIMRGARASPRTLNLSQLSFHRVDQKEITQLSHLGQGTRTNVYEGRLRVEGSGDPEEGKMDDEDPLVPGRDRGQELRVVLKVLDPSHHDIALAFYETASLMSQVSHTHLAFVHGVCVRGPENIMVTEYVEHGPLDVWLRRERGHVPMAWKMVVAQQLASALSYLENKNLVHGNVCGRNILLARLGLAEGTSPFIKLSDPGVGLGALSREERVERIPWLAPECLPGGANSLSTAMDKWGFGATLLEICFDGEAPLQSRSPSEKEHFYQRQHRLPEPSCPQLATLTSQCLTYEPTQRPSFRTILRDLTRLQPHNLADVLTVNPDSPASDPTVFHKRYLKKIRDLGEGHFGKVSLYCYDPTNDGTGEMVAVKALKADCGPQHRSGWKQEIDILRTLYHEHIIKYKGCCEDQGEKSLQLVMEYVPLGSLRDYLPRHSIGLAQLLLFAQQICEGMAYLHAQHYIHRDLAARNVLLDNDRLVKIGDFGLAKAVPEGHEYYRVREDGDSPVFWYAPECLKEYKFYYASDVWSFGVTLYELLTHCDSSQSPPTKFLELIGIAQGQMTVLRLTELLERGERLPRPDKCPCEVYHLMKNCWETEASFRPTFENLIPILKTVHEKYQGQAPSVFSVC

Row | Compound | IC50 [1] | IC50 [2]
1 | CCC(CC)n1cc(-c2nc(-c3cnn([C@H]4C[C@@](O)(CO)C4)c3)cn3nccc23)cn1 | in the range around 5.5 µM | 
2 | CCC(CC)n1cc(-c2nc(-c3cnn([C@H]4C[C@@H](O)[C@@H](O)C4)c3)cn3nccc23)cn1 | in the range around 5.5 µM | in the range around 0.055 µM
3 | CCC(CC)n1cc(-c2nc(-c3cnn(CC4CC(CO)C4)c3)cn3nccc23)cn1 (centres undefined) | in the range around 5.5 µM | 
